Reference: patent US11279681B2, “3-alkyl bicyclic [4,5,0] hydroxamic acids as HDAC inhibitors” (Valo Health, Inc., priority 2015, dated 2022)

What follows are molecules tested against T1, HDAC6 (Homo sapiens, UniProt Q9UBN7) (assay: In vitro histone deacetylase assay: enzymatic HDAC6 electrophoretic mobility shift assay). Details: full length human recombinant HDAC6, 1 nM enzyme, 2 μM peptide substrate RHKK(Ac)-NH2, 25° C.; read-out: Inhibitory Concentration (IC50) Values for Representative Compounds against HDAC6, Activity Range.
T1 sequence (Q9UBN7 1-1215): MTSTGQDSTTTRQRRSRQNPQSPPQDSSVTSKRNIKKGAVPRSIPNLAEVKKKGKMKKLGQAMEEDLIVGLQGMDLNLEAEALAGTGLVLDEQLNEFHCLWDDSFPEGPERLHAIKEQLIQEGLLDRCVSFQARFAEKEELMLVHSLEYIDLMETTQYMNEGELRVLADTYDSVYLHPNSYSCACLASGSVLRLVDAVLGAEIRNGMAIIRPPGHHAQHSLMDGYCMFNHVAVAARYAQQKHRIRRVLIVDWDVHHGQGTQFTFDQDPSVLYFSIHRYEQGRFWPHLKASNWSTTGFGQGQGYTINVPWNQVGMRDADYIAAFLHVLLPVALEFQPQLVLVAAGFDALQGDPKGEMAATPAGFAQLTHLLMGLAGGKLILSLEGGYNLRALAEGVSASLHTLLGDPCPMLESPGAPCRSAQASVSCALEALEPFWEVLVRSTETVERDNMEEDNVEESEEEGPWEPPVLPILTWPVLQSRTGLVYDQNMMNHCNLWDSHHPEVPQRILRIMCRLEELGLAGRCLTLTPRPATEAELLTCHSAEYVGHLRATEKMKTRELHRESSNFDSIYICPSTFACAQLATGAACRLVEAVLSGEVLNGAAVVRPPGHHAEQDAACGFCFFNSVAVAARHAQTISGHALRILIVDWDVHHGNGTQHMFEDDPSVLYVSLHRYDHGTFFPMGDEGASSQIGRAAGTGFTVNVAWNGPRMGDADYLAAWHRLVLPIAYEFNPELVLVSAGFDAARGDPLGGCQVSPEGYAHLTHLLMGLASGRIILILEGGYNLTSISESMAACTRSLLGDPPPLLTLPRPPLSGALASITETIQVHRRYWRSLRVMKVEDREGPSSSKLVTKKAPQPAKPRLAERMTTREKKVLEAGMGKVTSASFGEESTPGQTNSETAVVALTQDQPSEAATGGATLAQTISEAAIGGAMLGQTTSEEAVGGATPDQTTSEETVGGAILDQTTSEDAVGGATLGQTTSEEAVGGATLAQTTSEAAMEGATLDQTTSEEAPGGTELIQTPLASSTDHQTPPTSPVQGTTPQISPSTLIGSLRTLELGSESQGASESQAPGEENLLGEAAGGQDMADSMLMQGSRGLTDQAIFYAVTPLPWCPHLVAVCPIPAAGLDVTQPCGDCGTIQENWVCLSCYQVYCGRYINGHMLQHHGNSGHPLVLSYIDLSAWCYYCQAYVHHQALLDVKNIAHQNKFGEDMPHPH
Format: biochemical

Structure (SMILES) | IC50 [nM]
COc1ccc(CN2CCOc3cc(C(=O)NO)ccc3[C@@H]2C)cc1 [(S)-N-hydroxy-4-(4-methoxybenzyl)-5-methyl-2,3,4,5-tetrahydrobenzo[f][1,4]oxazepine-8-carboxamide] | 100 to 500
COC1CCN(C(=O)N2Cc3ccc(C(=O)NO)cc3OC[C@@H]2C)CC1 [(S)-N-hydroxy-4-(4-methoxypiperidine-1-carbonyl)-3-methyl-2,3,4,5-tetrahydrobenzo[f][1,4]oxazepine-8-carboxamide] | ≤ 100
COCCS(=O)(=O)N1Cc2ccc(C(=O)NO)cc2OC[C@@H]1C [(S)-N-hydroxy-4-((2-methoxyethyl)sulfonyl)-3-methyl-2,3,4,5-tetrahydrobenzo[f][1,4]oxazepine-8-carboxamide] | 100 to 500
C[C@H]1COc2cc(C(=O)NO)ccc2CN1C(=O)N1Cc2ccccc2C1 [(S)-N-hydroxy-4-(isoindoline-2-carbonyl)-3-methyl-2,3,4,5-tetrahydrobenzo[f][1,4]oxazepine-8-carboxamide] | ≤ 100
CC(C)CN1Cc2ccc(C(=O)NO)cc2OC[C@@H]1C [(S)-N-hydroxy-4-isobutyl-3-methyl-2,3,4,5-tetrahydrobenzo[f][1,4]oxazepine-8-carboxamide] | ≤ 100
CC(C)N1Cc2ccc(C(=O)NO)cc2OC[C@@H]1C [(S)-N-hydroxy-4-isopropyl-3-methyl-2,3,4,5-tetrahydrobenzo[f][1,4]oxazepine-8-carboxamide] | > 500
C[C@H]1CN(C)Cc2ccc(C(=O)NO)cc2O1 [(S)—N-hydroxy-2,4-dimethyl-2,3,4,5-tetrahydrobenzo[f][1,4]oxazepine-8-carboxamide] | > 500
C[C@H]1CNCc2ccc(C(=O)NO)cc2O1 [(S)—N-hydroxy-2-methyl-2,3,4,5-tetrahydrobenzo[f][1,4]oxazepine-8-carboxamide] | 100 to 500
C[C@H]1COc2cc(C(=O)NO)ccc2CN1C [(S)—N-hydroxy-3,4-dimethyl-2,3,4,5-tetrahydrobenzo[f][1,4]oxazepine-8-carboxamide] | 100 to 500
C[C@H]1COc2cc(C(=O)NO)ccc2CN1 [(S)—N-hydroxy-3-methyl-2,3,4,5-tetrahydrobenzo[f][1,4]oxazepine-8-carboxamide] | 100 to 500
O=C(NO)c1ccc2c(c1)OCCNC2 [N-hydroxy-2,3,4,5-tetrahydrobenzo[f][1,4]oxazepine-8-carboxamide] | 100 to 500
O=C1CN(C(=O)N2CCCCC2)Cc2cc(C(=O)NO)ccc2N1 [N-hydroxy-2-oxo-4-(piperidine-1-carbonyl)-2,3,4,5-tetrahydro-1H-benzo[e][1,4]diazepine-7-carboxamide] | 100 to 500
O=C1CN(c2ccccc2)Cc2cc(C(=O)NO)ccc2N1 [N-hydroxy-2-oxo-4-phenyl-2,3,4,5-tetrahydro-1H-benzo[e][1,4]diazepine-7-carboxamide] | > 500
CN1Cc2ccc(C(=O)NO)cc2OCC1(C)C [N-hydroxy-3,3,4-trimethyl-2,3,4,5-tetrahydrobenzo[f][1,4]oxazepine-8-carboxamide] | ≤ 100
CC1(C)COc2cc(C(=O)NO)ccc2CN1 [N-hydroxy-3,3-dimethyl-2,3,4,5-tetrahydrobenzo[f][1,4]oxazepine-8-carboxamide] | ≤ 100
COCCN1CCOc2cc(C(=O)NO)ccc2C1 [N-hydroxy-4-(2-methoxyethyl)-2,3,4,5-tetrahydrobenzo[f][1,4]oxazepine-8-carboxamide] | 100 to 500
CC1CCCCN1C(=O)N1CCOc2cc(C(=O)NO)ccc2C1 (centres unmarked) [N-hydroxy-4-(2-methylpiperidine-1-carbonyl)-2,3,4,5-tetrahydrobenzo[f][1,4]oxazepine-8-carboxamide] | ≤ 100
CC1COCCN1C(=O)N1CCOc2cc(C(=O)NO)ccc2C1 (centres unmarked) [N-hydroxy-4-(3-methylmorpholine-4-carbonyl)-2,3,4,5-tetrahydrobenzo[f][1,4]oxazepine-8-carboxamide] | 100 to 500
COc1ccc(CN2Cc3ccc(C(=O)NO)cc3OCC23CC3)cc1 [N-hydroxy-4-(4-methoxybenzyl)-4,5-dihydro-2H-spiro[benzo[f][1,4]oxazepine-3,1′-cyclopropane]-8-carboxamide] | ≤ 100

Structure (SMILES) | IC50 [nM]
COC1CCN(C(=O)N2CCOc3cc(C(=O)NO)ccc3C2)CC1 [N-hydroxy-4-(4-methoxypiperidine-1-carbonyl)-2,3,4,5-tetrahydrobenzo[f][1,4]oxazepine-8-carboxamide] | 100 to 500
CN1CCN(C(=O)N2CCOc3cc(C(=O)NO)ccc3C2)CC1 [N-hydroxy-4-(4-methylpiperazine-1-carbonyl)-2,3,4,5-tetrahydrobenzo[f][1,4]oxazepine-8-carboxamide] | > 500
O=C(NO)c1ccc2c(c1)OCCN(C(=O)N1Cc3ccccc3C1)C2 [N-hydroxy-4-(isoindoline-2-carbonyl)-2,3,4,5-tetrahydrobenzo[f][1,4]oxazepine-8-carboxamide] | ≤ 100
O=C(NO)c1ccc2c(c1)OCCN(C(=O)N1CCOCC1)C2 [N-hydroxy-4-(morpholine-4-carbonyl)-2,3,4,5-tetrahydrobenzo[f][1,4]oxazepine-8-carboxamide] | 100 to 500
Cc1ccc(N2CCOc3cc(C(=O)NO)ccc3C2)cc1 [N-hydroxy-4-(p-tolyl)-2,3,4,5-tetrahydrobenzo[f][1,4]oxazepine-8-carboxamide] | 100 to 500
O=C(NO)c1ccc2c(c1)OCCN(c1ccccn1)C2 [N-hydroxy-4-(pyridin-2-yl)-2,3,4,5-tetrahydrobenzo[f][1,4]oxazepine-8-carboxamide] | 100 to 500
O=C(NO)c1ccc2c(c1)OCCN(c1cccnc1)C2 [N-hydroxy-4-(pyridin-3-yl)-2,3,4,5-tetrahydrobenzo[f][1,4]oxazepine-8-carboxamide] | 100 to 500
O=C(NO)c1ccc2c(c1)OCCN(c1ccncc1)C2 [N-hydroxy-4-(pyridin-4-yl)-2,3,4,5-tetrahydrobenzo[f][1,4]oxazepine-8-carboxamide] | > 500
O=C(NO)c1ccc2c(c1)OCCN(C(=O)N1CCCC1)C2 [N-hydroxy-4-(pyrrolidine-1-carbonyl)-2,3,4,5-tetrahydrobenzo[f][1,4]oxazepine-8-carboxamide] | ≤ 100
CN1CCOc2cc(C(=O)NO)ccc2C1 [N-hydroxy-4-methyl-2,3,4,5-tetrahydrobenzo[f][1,4]oxazepine-8-carboxamide] | 100 to 500
CN1Cc2ccc(C(=O)NO)cc2OCC12CC2 [N-hydroxy-4-methyl-4,5-dihydro-2H-spiro[benzo[f][1,4]oxazepine-3,1′-cyclopropane]-8-carboxamide] | ≤ 100
O=C(NO)c1ccc2c(c1)OCCN(c1ccccc1)C2 [N-hydroxy-4-phenyl-2,3,4,5-tetrahydrobenzo[f][1,4]oxazepine-8-carboxamide] | > 500
O=C(NO)c1ccc2c(c1)OCC1(CC1)N(c1ccccc1)C2 [N-hydroxy-4-phenyl-4,5-dihydro-2H-spiro[benzo[f][1,4]oxazepine-3,1′-cyclopropane]-8-carboxamide] | 100 to 500
C[C@H]1COc2cc(C(=O)NO)ccc2CN1C(=O)OC1CCC1 [cyclobutyl(S)-8-(hydroxycarbamoyl)-3-methyl-2,3-dihydrobenzo[f][1,4]oxazepine-4(5H)-carboxylate] | ≤ 100
C[C@H]1COc2cc(C(=O)NO)ccc2CN1C(=O)OC1CCCCC1 [cyclohexyl(S)-8-(hydroxycarbamoyl)-3-methyl-2,3-dihydrobenzo[f][1,4]oxazepine-4(5H)-carboxylate] | ≤ 100
C[C@H]1COc2cc(C(=O)NO)ccc2CN1C(=O)OC1CCCC1 [cyclopentyl(S)-8-(hydroxycarbamoyl)-3-methyl-2,3-dihydrobenzo[f][1,4]oxazepine-4(5H)-carboxylate] | ≤ 100
CCOC(=O)N1Cc2ccc(C(=O)NO)cc2OC[C@@H]1C [ethyl(S)-8-(hydroxycarbamoyl)-3-methyl-2,3-dihydrobenzo[f][1,4]oxazepine-4(5H)-carboxylate] | ≤ 100
CC(C)OC(=O)N1Cc2ccc(C(=O)NO)cc2OC[C@@H]1C [isopropyl(S)-8-(hydroxycarbamoyl)-3-methyl-2,3-dihydrobenzo[f][1,4]oxazepine-4(5H)-carboxylate] | ≤ 100
COC(=O)N1Cc2ccc(C(=O)NO)cc2OC[C@@H]1C [methyl(S)-8-(hydroxycarbamoyl)-3-methyl-2,3-dihydrobenzo[f][1,4]oxazepine-4(5H)-carboxylate] | ≤ 100
